{"source": "paper PMC12326976", "about": "(Antimicrobial Agents and Chemotherapy, 2025)", "key": {"H1N1 virus [1]": {"test_system": "H1N1 virus", "assay": "Plaque reduction assay, H1N1 in MDCK cells", "type": "cell-based, influenza A/Hong Kong/415742/2009 (H1N1)", "conditions": "H30 in 20% PBS compared to PBS, plaque assay, Fig. S1", "protocol": "The antiviral activity of peptides was measured by plaque reduction assay. Briefly, peptides were dissolved in PBS or 20% PBS. Peptides (0.2-25.0 µg mL^−1) were premixed with H1N1 virus at room temperature. After 30 min of incubation, the peptide-virus mixture was transferred to MDCK cells for infection at 37°C. At 1 hpi, infectious media were removed, and then 1% low melting agar was added to cells. Cells were fixed using 4% formalin at 2–3 dpi. […] (0.1%) was added to cells for cell staining to count viral plaques."}, "rhinovirus A1": {"test_system": "rhinovirus A1", "type": "cell-based"}, "H1N1 virus [2]": {"test_system": "H1N1 virus", "type": "cell-based, influenza H1N1 virus"}}, "note": "Peptide text beside a SMILES is read from it.", "data": [{"smiles": "CC[C@H](C)[C@H](NC(=O)[C@H](C)NC(=O)CN)C(=O)N[C@@H](CS)C(=O)N[C@@H](Cc1c[nH]cn1)C(=O)N1CCC[C@H]1C(=O)N[C@H](C(=O)N[C@@H](Cc1ccccc1)C(=O)N[C@@H](CS)C(=O)N1CCC[C@H]1C(=O)N[C@@H](CCCNC(=N)N)C(=O)N[C@@H](CCCNC(=N)N)C(=O)N[C@@H](Cc1ccc(O)cc1)C(=O)N[C@@H](CCCCN)C(=O)N[C@@H](CCC(N)=O)C(=O)N[C@H](C(=O)NCC(=O)N[C@H](C(=O)N[C@@H](CS)C(=O)NCC(=O)N[C@@H](CC(C)C)C(=O)N1CCC[C@H]1C(=O)NCC(=O)N[C@H](C(=O)N[C@@H](CCCCN)C(=O)N[C@@H](CS)C(=O)N[C@@H](CS)C(=O)N[C@@H](CCCCN)C(=O)N[C@@H](CCCCN)C(=O)N1CCC[C@H]1C(=O)O)[C@@H](C)O)[C@@H](C)O)[C@@H](C)CC)C(C)C", "note": "[H30] (H-GAICHPVFCPRRYKQIGTCGLPGTKCCKKP-OH; N-terminus and C-terminus assumed)", "values": [{"measurement": "antiviral activity against H1N1 in low salt", "setting": "H1N1 virus [1]", "value": "could show antiviral activity in the low salt condition of 20% phosphate-buffered saline"}, {"measurement": "antiviral activity against rhinovirus A1 in low salt", "setting": "rhinovirus A1", "value": "could show more effective antiviral activity in low salt conditions"}]}, {"smiles": "CC(=O)N[C@H]1[C@H]([C@H](O)[C@H](O)CO)OC(C(=O)O)=C[C@@H]1N=C(N)N", "note": "[zanamivir, reference compound]", "values": [{"measurement": "H1N1 viral release, supernatant virus at 8 hpi", "setting": "H1N1 virus [2]", "value": "significantly inhibited H1N1 viral release from cells"}]}]}
